From paper PMC12592486 (Scientific Reports, 2025) come the findings set out here.

Molecules are shown by their SMILES.

Assay [1] concerns the target T1, α-glucosidase (Saccharomyces cerevisiae, UniProt P53341). The assay is described as follows: α-glucosidase inhibition assay. It is filed as biochemical, S. cerevisiae.
The target in assay [2] is T1, α-glucosidase. The assay is described as follows: Enzyme kinetics study. Type of assay: biochemical, S. cerevisiae.

T1 sequence (P53341 whole entry): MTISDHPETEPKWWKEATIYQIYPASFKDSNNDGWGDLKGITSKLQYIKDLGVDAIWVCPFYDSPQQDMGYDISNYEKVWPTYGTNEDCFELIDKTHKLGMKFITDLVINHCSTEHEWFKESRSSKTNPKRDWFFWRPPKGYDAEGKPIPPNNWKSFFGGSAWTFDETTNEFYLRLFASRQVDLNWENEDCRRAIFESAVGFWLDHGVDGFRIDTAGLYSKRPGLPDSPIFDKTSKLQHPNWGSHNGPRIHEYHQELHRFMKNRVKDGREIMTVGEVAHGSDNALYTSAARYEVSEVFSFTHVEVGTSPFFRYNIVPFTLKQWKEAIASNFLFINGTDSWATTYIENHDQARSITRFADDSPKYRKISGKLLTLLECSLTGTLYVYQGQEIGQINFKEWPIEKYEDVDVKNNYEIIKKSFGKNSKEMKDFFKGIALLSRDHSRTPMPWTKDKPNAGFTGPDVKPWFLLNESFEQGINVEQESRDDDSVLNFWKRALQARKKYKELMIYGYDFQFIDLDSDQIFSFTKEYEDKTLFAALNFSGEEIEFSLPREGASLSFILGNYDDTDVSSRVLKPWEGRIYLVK

Consider `O=S(=O)(c1ccc(Cl)cc1)n1cc(C=NNC(=S)Nc2ccc(Br)cc2)c2ccccc21` [Compound 5s, N-(4-Bromophenyl)-2-({1-[(4-chlorophenyl)sulfonyl]-1H-indol-3-yl}methylene)hydrazine-1-carbothioamide], for which the “times/folds more active than the standard inhibitor acarbose” value at α-glucosidase [1] was “more than 100 folds”.

As for `COc1ccc(NC(=S)NN=Cc2cn(S(=O)(=O)c3ccc(Cl)cc3)c3ccccc23)cc1` [Compound 5b, 2-({1-[(4-Chlorophenyl)sulfonyl]-1H-indol-3-yl}methylene)-N-(4-methoxyphenyl)hydrazine-1-carbothioamide], on α-glucosidase [1] (4-methoxyphenyl vs 3-methoxyphenyl), the “folds more active than 5k” value came to 1.3 folds.

For the molecule `CC(C)CNC(=S)NN=Cc1cn(S(=O)(=O)c2ccc(Cl)cc2)c2ccccc12` [Compound 5p, 2-({1-[(4-Chlorophenyl)sulfonyl]-1H-indol-3-yl}methylene)-N-isobutylhydrazine-1-carbothioamide], the “times/folds more active than the standard inhibitor acarbose” value at α-glucosidase [1] is recorded as “fifteen”.

For the molecule `O=S(=O)(c1ccc(Cl)cc1)n1cc(C=NNC(=S)Nc2c(Cl)cccc2Cl)c2ccccc21` [Compound 5w, 2-({1-[(4-Chlorophenyl)sulfonyl]-1H-indol-3-yl}methylene)-N-(2,6-dichlorophenyl)hydrazine-1-carbothioamide], the “times/folds more active than the standard inhibitor acarbose” value at α-glucosidase [1] is recorded as “more than 100 folds”.

For the molecule `O=S(=O)(c1ccc(Cl)cc1)n1cc(C=NNC(=S)Nc2ccc(Br)cc2F)c2ccccc21` [Compound 5u, N-(4-Bromo-2-fluorophenyl)-2-({1-[(4-chlorophenyl)sulfonyl]-1H-indol-3-yl}methylene)hydrazine-1-carbothioamide], the “times/folds more active than the standard inhibitor acarbose” value at α-glucosidase [1] worked out at 162 folds. Also, the “better inhibition of 5u compared to 5p” value at α-glucosidase [1] (most active vs least active inhibitor) is listed as “about 11 folds”. Besides, the inhibition constant (Ki) at α-glucosidase [2] worked out at 3.57 ± 0.0084 µM. The type of inhibition entry on α-glucosidase [2] (Km increases, Vmax constant) is recorded as “competitive type inhibitor”.

What is called Ki is a dissociation constant, usually derived from enzyme kinetics or from competition with a known ligand. A high value points to a looser hold on the target.
